Measurements: patent publication US20260007758A1, “SO[…]-2 RECEPTOR (SST2R) NON-PEPTIDE DRUG CONJUGATES AND USES THEREOF” (Crinetics Pharmaceuticals, Inc., priority 2024, published 2026)

Legend:
Type in all cases: cell-based
[1] = tested on: NCI-H524 human small cell lung cancer cells; assay: H524 assay: inhibition of cell proliferation (CellTiter Glo); details: 2 h treatment, washout, additional 70 h incubation
Experimental: NDCs of the present invention were assessed in an in vitro assay evaluating the inhibition of cell proliferation. NCI-H524 (ATCC) human small cell lung cancer cells were plated in 96-well V-bottom plates (Costar) at a concentration of 5,000 cells/well. 24 h later, the cells were treated for 2 h with a NDC. NDC starting dose was 1 uM and two-fold serial dilutions were done for a total of 11 points. After 2 h of treatment, cells were spun down, and the drug-containing media was removed, and fresh complete media was added and used to resuspend the cells, which were spun again. After removal of the media, the cells were resuspended in complete medium and incubated for an additional 70 h. Cell proliferation was assessed using the CellTiter Glo Assay according to the standard protocol (Promega). Luminescence was measured using a TECAN plate reader. Percent proliferation inhibition was calculated using the following formula: % inhibition=(Luminescence Control−Luminescence Treatment)/Luminescence Control*100. IC50 curves were generated using the nonlinear regression analysis (four-parameter) with GraphPad Prism 9.

SST2 = biological target: T1, SST2 (Homo sapiens, UniProt P30874); assay: PathHunter CHO-K1 SST2 Internalization Assay; details: PathHunter CHO-K1 SST2 cells; 90 min at 37 C; luminescence; read-out: Internalization EC50
T1 construct: host or cells: PathHunter CHO-K1 SST2 cells
Experimental: NDCs of the present invention were assessed in vitro using the human PathHunter CHO-K1 SST2 β-arrestin2 and PathHunter CHO-K1 SST2 Internalization Assays from DiscoverX. The CHO-K cells were seeded in 20 μLs of cell culture medium in a white-walled 384 well tissue culture-compatible plate at a density of 2500 cells/well. After a 48-hour incubation, cells were treated with 5 μLs of a 1:3 serially diluted SST2 NDC prepared at 5× concentration with a final top compound concentration of 10 uM for 90 min at 37 C and in 5% CO2. 11 dilutions were tested as well as one treatment that was compound free. After incubation, the media containing treatments were discarded and 20 μL of a working solution of Beta-Glo from Promega Beta-Go Assay System was added to each well. The plate was then incubated for 60 min at room temperature in the dark. Luminescence was measured using a Tecan plate reader. IC50 curves were generated using the nonlinear regression analysis (four-parameters) with GraphPad Prism 9. Results were the average of duplicates and are corrected for background.

[2] = biological target: T2, human somatostatin receptor subtype 2 (Homo sapiens, UniProt P30874); assay: Functional assay for SSTR2 agonists (HTRF cAMP); details: CHO-K1 cells stably expressing human SST2; NKH477-stimulated cAMP; 20 min at 37 C; read-out: hSST2 cAMP Avg EC50
T2 construct: expressed in transfected cells
Excerpt: General overview: All five SSTR subtypes are Gi coupled G-protein coupled receptors (GPCRs) that lead to decreases in intracellular cyclic AMP (cAMP) when activated by an agonist. Therefore, measurement of intracellular cAMP levels can be used to assess whether compounds of the invention are agonists of SSTR subtypes (John Kelly, Troy Stevens, W. Joseph Thompson, and Roland Seifert, Current Protocols in Pharmacology. 2005, 2.2.1-2.2). One example of an intracellular cAMP assay is described below.
Four days prior to the assay, 2,000 Chinese hamster ovary cells (CHO-K1, ATCC #CCL-61) stably expressing the human somatostatin receptor subtype 2 are plated in each well of a 96-well tissue culture-treated plate in Ham's F12 growth media (ThermoFisher #10-080-CM) supplemented with 10% donor bovine serum (Gemini Bio-Products #100-506), 100 U/mL penicillin; 100 ug/mL streptomycin, 2 mM L-glutamine (Gemini Bio-Products #400-110) and 0.2 mg/mL hygromycin B (GoldBio #31282-04-9). The cells are cultured at 37° C., 5% CO2 and 95% humidity. cAMP is measured with HTRF dynamic cAMP assay (Cisbio. #62AM5PEJ) per manufacturer's instructions. […] The cells are incubated for 20 minutes at 37° C. (the final concentration of the compounds of the invention are typically 0-10,000 nM). The cells are treated with 50 μL of lysis buffer (HRTF cAMP kit, Cisbio) and incubated at room temperature for 30 minutes with rotary shaking at 600 rpm, and then diluted with 150 μL of stimulation buffer and shaken for an additional five minutes at 300 rpm. The lysate is transferred to 384-well plates and incubated for 1-24 hours at room temperature, and cAMP accumulation is detected by d2-labeled cAMP and Anti-cAMP-Cryptate. The time-resolved fluorescent signal is read using a m1000 Pro (Tecan) or CLARIOStar (BMG Labtech) microplate reader, where the samples are excited with light at 340 nm and emission light is measured at 620 nm and 665 nm. The data is expressed as a calculation of the fluorescence ratio (665 nm/620 nm). The intracellular cAMP concentrations are calculated by regression to a standard curve and are plotted vs, the concentration of the compounds of the invention. The EC50 of the compounds are calculated using standard methods. All data manipulations are in GraphPad Prism v9 (GraphPad, San Diego, CA).

T2 sequence (P30874 whole entry): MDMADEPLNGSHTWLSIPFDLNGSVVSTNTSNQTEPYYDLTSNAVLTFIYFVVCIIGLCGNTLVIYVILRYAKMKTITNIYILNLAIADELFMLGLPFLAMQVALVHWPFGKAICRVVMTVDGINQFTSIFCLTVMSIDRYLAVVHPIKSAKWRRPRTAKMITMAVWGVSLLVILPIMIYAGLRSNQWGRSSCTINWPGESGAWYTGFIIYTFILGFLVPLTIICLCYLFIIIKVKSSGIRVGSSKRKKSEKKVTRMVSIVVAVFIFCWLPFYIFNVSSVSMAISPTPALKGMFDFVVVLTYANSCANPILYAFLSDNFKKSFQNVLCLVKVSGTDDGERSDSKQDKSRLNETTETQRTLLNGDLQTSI
T1 sequence (P30874 whole entry): as above

Row | Compound | EC50 [1] [nM] | EC50 (SST2) [nM] | EC50 [2] [nM]
1 | CC[C@H](C)[C@@H]([C@@H](CC(=O)N1CCC[C@H]1[C@H](OC)[C@@H](C)C(=O)N[C@H](C)[C@@H](O)c1ccccc1)OC)N(C)C(=O)[C@@H](NC(=O)[C@H](C(C)C)N(C)C(=O)OCc1ccc(NC(=O)[C@H](C)NC(=O)[C@@H](NC(=O)CCOCCC(=O)NCCNc2ncc(-c3cc(C)cc(F)c3)c(N3CCC(N)CC3)c2-c2nc3ccc(Cl)cc3[nH]2)C(C)C)c(O)c1)C(C)C [Compound 17] | 5.4 | 3.8 | 0.44
2 | CC[C@H](C)[C@@H]([C@@H](CC(=O)N1CCC[C@H]1[C@H](OC)[C@@H](C)C(=O)N[C@H](C)[C@@H](O)c1ccccc1)OC)N(C)C(=O)[C@@H](NC(=O)[C@H](C(C)C)N(C)C(=O)OCc1ccc(NC(=O)[C@H](CCCNC(N)=O)NC(=O)[C@@H](NC(=O)CCOCCC(=O)NCCNc2ncc(-c3cc(C)cc(F)c3)c(N3CCC(N)CC3)c2-c2nc3ccc(Cl)cc3[nH]2)C(C)C)c(OCC(=O)O)c1)C(C)C [Compound 18] | 7.8 | 6.4 | 0.097
3 | CC[C@H](C)[C@@H]([C@@H](CC(=O)N1CCC[C@H]1[C@H](OC)[C@@H](C)C(=O)N[C@H](C)[C@@H](O)c1ccccc1)OC)N(C)C(=O)[C@@H](NC(=O)[C@H](C(C)C)N(C)C(=O)OCc1ccc(NC(=O)[C@H](CCCNC(N)=O)NC(=O)[C@@H](NC(=O)CCOCCOCCOCCOCCC(=O)NCCNc2ncc(-c3cc(C)cc(F)c3)c(N3CCC(N)CC3)c2-c2nc3ccc(Cl)cc3[nH]2)C(C)C)c(OCC(=O)O)c1)C(C)C [Compound 19] | 28 | 8.1 | 0.07
4 | CC[C@H](C)[C@@H]([C@@H](CC(=O)N1CCC[C@H]1[C@H](OC)[C@@H](C)C(=O)N[C@H](C)[C@@H](O)c1ccccc1)OC)N(C)C(=O)[C@@H](NC(=O)[C@H](C(C)C)N(C)C(=O)OCc1ccc(NC(=O)[C@H](CCCNC(N)=O)NC(=O)[C@@H](NC(=O)CN(C)C(=O)CCOCCC(=O)NCCNc2ncc(-c3cc(C)cc(F)c3)c(N3CCC(N)CC3)c2-c2nc3ccc(Cl)cc3[nH]2)C(C)C)c(OCC(N)=O)c1)C(C)C [Compound 20] | 29 | 7 | 0.093
5 | CC[C@H](C)[C@@H]([C@@H](CC(=O)N1CCC[C@H]1[C@H](OC)[C@@H](C)C(=O)N[C@H](C)[C@@H](O)c1ccccc1)OC)N(C)C(=O)[C@@H](NC(=O)[C@H](C(C)C)N(C)C(=O)OCc1ccc(NC(=O)[C@H](CCCNC(N)=O)NC(=O)[C@@H](NC(=O)CCOCCC(=O)N(C)CC(=O)NCCNc2ncc(-c3cc(C)cc(F)c3)c(N3CCC(N)CC3)c2-c2nc3ccc(Cl)cc3[nH]2)C(C)C)c(OCC(N)=O)c1)C(C)C [Compound 21] | 13 | 7.6 | 0.096
6 | CC[C@H](C)[C@@H]([C@@H](CC(=O)N1CCC[C@H]1[C@H](OC)[C@@H](C)C(=O)N[C@H](C)[C@@H](O)c1ccccc1)OC)N(C)C(=O)[C@@H](NC(=O)[C@H](C(C)C)N(C)C(=O)OCc1ccc(NC(=O)[C@H](CCCNC(N)=O)NC(=O)[C@@H](NC(=O)C[C@@H](N)C(=O)NCCOCCC(=O)NCCNc2ncc(-c3cc(C)cc(F)c3)c(N3CCC(N)CC3)c2-c2nc3ccc(Cl)cc3[nH]2)C(C)C)c(OCC(=O)O)c1)C(C)C [Compound 22] | 22 | 17 | 0.17
7 | CC[C@H](C)[C@@H]([C@@H](CC(=O)N1CCC[C@H]1[C@H](OC)[C@@H](C)C(=O)N[C@H](C)[C@@H](O)c1ccccc1)OC)N(C)C(=O)[C@@H](NC(=O)[C@H](C(C)C)N(C)C(=O)OCc1ccc(NC(=O)[C@H](CCCNC(N)=O)NC(=O)[C@@H](NC(=O)C[C@@H](N)C(=O)NCCOCCOCCOCCOCCC(=O)NCCNc2ncc(-c3cc(C)cc(F)c3)c(N3CCC(N)CC3)c2-c2nc3ccc(Cl)cc3[nH]2)C(C)C)c(OCC(=O)O)c1)C(C)C [Compound 23] | 32 | 20 | 0.29
8 | CC[C@H](C)[C@@H]([C@@H](CC(=O)N1CCC[C@H]1[C@H](OC)[C@@H](C)C(=O)N[C@H](C)[C@@H](O)c1ccccc1)OC)N(C)C(=O)[C@@H](NC(=O)[C@H](C(C)C)N(C)C(=O)OCc1ccc(NC(=O)[C@H](CCCNC(N)=O)NC(=O)[C@@H](NC(=O)CCOCCOCCOCCOCCC(=O)N(C)CC(=O)NCCNc2ncc(-c3cc(C)cc(F)c3)c(N3CCC(N)CC3)c2-c2nc3ccc(Cl)cc3[nH]2)C(C)C)c(OCC(=O)O)c1)C(C)C [Compound 24] | 100 | 20 | 0.2
9 | CC[C@H](C)[C@@H]([C@@H](CC(=O)N1CCC[C@H]1[C@H](OC)[C@@H](C)C(=O)N[C@H](C)[C@@H](O)c1ccccc1)OC)N(C)C(=O)[C@@H](NC(=O)[C@H](C(C)C)N(C)C(=O)OCc1ccc(NC(=O)[C@H](CCCNC(N)=O)NC(=O)[C@@H](NC(=O)[C@@H](CCC(=O)O)NC(=O)CCOCCC(=O)NCCNc2ncc(-c3cc(C)cc(F)c3)c(N3CCC(N)CC3)c2-c2nc3ccc(Cl)cc3[nH]2)C(C)C)cc1C(=O)NCCN)C(C)C [Compound 25] | 41 | 6.5 | 0.29
10 | CC[C@H](C)[C@@H]([C@@H](CC(=O)N1CCC[C@H]1[C@H](OC)[C@@H](C)C(=O)N[C@H](C)[C@@H](O)c1ccccc1)OC)N(C)C(=O)[C@@H](NC(=O)[C@H](C(C)C)N(C)C(=O)OCc1ccc(NC(=O)[C@H](CCCNC(N)=O)NC(=O)[C@@H](NC(=O)[C@H](CCC(N)=O)NC(=O)CCOCCOCCOCCOCCC(=O)NCCNc2ncc(-c3cc(C)cc(F)c3)c(N3CCC(N)CC3)c2-c2nc3ccc(Cl)cc3[nH]2)C(C)C)c(OCCN)c1)C(C)C [Compound 26] | 17 | 12 | 0.3
11 | CC[C@H](C)[C@@H]([C@@H](CC(=O)N1CCC[C@H]1[C@H](OC)[C@@H](C)C(=O)N[C@H](C)[C@@H](O)c1ccccc1)OC)N(C)C(=O)[C@@H](NC(=O)[C@H](C(C)C)N(C)C(=O)OCc1ccc(NC(=O)[C@H](C)NC(=O)[C@@H](NC(=O)[C@H](CS(=O)(=O)O)NC(=O)CCOCCC(=O)NCCNc2ncc(-c3cc(C)cc(F)c3)c(N3CCC(N)CC3)c2-c2nc3ccc(Cl)cc3[nH]2)C(C)C)cc1C(=O)NCCN)C(C)C [Compound 27] | 190 | 7.2 | 0.12
12 | CC[C@H](C)[C@@H]([C@@H](CC(=O)N1CCC[C@H]1[C@H](OC)[C@@H](C)C(=O)N[C@H](C)[C@@H](O)c1ccccc1)OC)N(C)C(=O)[C@@H](NC(=O)[C@H](C(C)C)N(C)C(=O)OCc1ccc(NC(=O)[C@H](CCCNC(N)=O)NC(=O)[C@@H](NC(=O)[C@@H](CS(=O)(=O)O)NC(=O)CCOCCC(=O)NCCNc2ncc(-c3cc(C)cc(F)c3)c(N3CCC(N)CC3)c2-c2nc3ccc(Cl)cc3[nH]2)C(C)C)cc1C(=O)NCCN)C(C)C [Compound 28] | 120 | 11 | 0.074
